Test results from ChEMBL document CHEMBL1201862, “PubChem BioAssay data set” (2004).
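Each compound was tested at five concentrations against cells in 96-well plates for 48 hours. Abbreviation: GI50, concentration required for 50% inhibition of growth.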 The source made the active and inactive calls. Rule as the data show it: active = GI50 up to about 1.1 µM and inactive = higher.

Legend:
Assay in all cases: growth of human tumour cells (NCI), 48 h
ACHN = test system: ACHN
BT-549 = test system: BT-549
CCRF-CEM = test system: CCRF-CEM
HCT-116 = test system: HCT-116
Hs-578T = test system: Hs-578T
K562 = test system: K562
MDA-MB-435 = test system: MDA-MB-435
NCI-H23 = test system: NCI-H23
NCI-H522 = test system: NCI-H522
OVCAR-3 = test system: OVCAR-3
OVCAR-5 = test system: OVCAR-5
OVCAR-8 = test system: OVCAR-8
PC-3 = test system: PC-3
RXF 393 = test system: RXF 393
SF-295 = test system: SF-295
SK-MEL-28 = test system: SK-MEL-28
SN12C = test system: SN12C
SNB-75 = test system: SNB-75
UACC-257 = test system: UACC-257
UO-31 = test system: UO-31

Compound | GI50 (ACHN) | GI50 (BT-549) | GI50 (CCRF-CEM) | GI50 (HCT-116) | GI50 (Hs-578T) | GI50 (K562) | GI50 (MDA-MB-435) | GI50 (NCI-H23) | GI50 (NCI-H522) | GI50 (OVCAR-3) | GI50 (OVCAR-5) | GI50 (OVCAR-8) | GI50 (PC-3) | GI50 (RXF 393) | GI50 (SF-295) | GI50 (SK-MEL-28) | GI50 (SN12C) | GI50 (SNB-75) | GI50 (UACC-257) | GI50 (UO-31)
O=C(O)c1ccccc1-c1ccccc1C(=O)Nc1ccc2c(c1)nc(O)c1ccccc12 | > 100 µM (inactive) | 52.4 µM (inactive) | 62.8 µM (inactive) | > 100 µM (inactive) | 98.4 µM (inactive) | 39.6 µM (inactive) | 89.7 µM (inactive) | > 100 µM (inactive) | 61.8 µM (inactive) | > 100 µM (inactive) | > 100 µM (inactive) | > 100 µM (inactive) | > 100 µM (inactive) | > 100 µM (inactive) | > 100 µM (inactive) | > 100 µM (inactive) | > 100 µM (inactive) | 93.3 µM (inactive) | > 100 µM (inactive) | > 100 µM (inactive)
O=C1c2ccccc2C(=O)N1C1(C(=O)NC2(C(=O)O)CCCC2)CCCC1 | > 100 µM (inactive) | > 100 µM (inactive) | > 100 µM (inactive) | > 100 µM (inactive) | > 100 µM (inactive) | > 100 µM (inactive) | > 100 µM (inactive) | > 100 µM (inactive) | > 100 µM (inactive) | > 100 µM (inactive) | > 100 µM (inactive) | > 100 µM (inactive) | > 100 µM (inactive) | > 100 µM (inactive) | > 100 µM (inactive) | > 100 µM (inactive) | > 100 µM (inactive) | > 100 µM (inactive) | > 100 µM (inactive) | > 100 µM (inactive)
Cc1sc2nc3n(c(=O)c2c1C)N=C(c1ccccc1)CS3 | > 100 µM (inactive) | > 100 µM (inactive) | > 100 µM (inactive) | > 100 µM (inactive) | 37.5 µM (inactive) | > 100 µM (inactive) | > 100 µM (inactive) | > 100 µM (inactive) | > 100 µM (inactive) | > 100 µM (inactive) | > 100 µM (inactive) | > 100 µM (inactive) | > 100 µM (inactive) | > 100 µM (inactive) | 45.4 µM (inactive) | > 100 µM (inactive) | > 100 µM (inactive) | > 100 µM (inactive) | > 100 µM (inactive) | > 100 µM (inactive)
O=S(=O)(O)c1cccc2ccc(O)c(/N=N\c3ccc(S(=O)(=O)c4ccc(/N=N/c5c(O)ccc6cccc(S(=O)(=O)O)c56)cc4)cc3)c12 | > 100 µM (inactive) | > 100 µM (inactive) | > 100 µM (inactive) | > 100 µM (inactive) | > 100 µM (inactive) | 50.4 µM (inactive) | > 100 µM (inactive) | > 100 µM (inactive) | > 100 µM (inactive) | > 100 µM (inactive) | > 100 µM (inactive) | > 100 µM (inactive) | > 100 µM (inactive) | > 100 µM (inactive) | > 100 µM (inactive) | > 100 µM (inactive) | > 100 µM (inactive) | 65.5 µM (inactive) | > 100 µM (inactive) | 63.4 µM (inactive)
CC(=O)Oc1c(OC(C)C)c(C)c(O[Si](C(C)C)(C(C)C)C(C)C)c2[nH]c3ccccc3c12 | > 100 µM (inactive) | > 100 µM (inactive) | 60.1 µM (inactive) | 63.4 µM (inactive) | > 100 µM (inactive) | > 100 µM (inactive) | > 42.2 µM (inactive) | 33.6 µM (inactive) | 34.6 µM (inactive) | > 100 µM (inactive) | > 100 µM (inactive) | > 100 µM (inactive) | 37.7 µM (inactive) | 20.2 µM (inactive) | 76.2 µM (inactive) | > 100 µM (inactive) | > 69 µM (inactive) | > 100 µM (inactive) | > 62.4 µM (inactive) | > 100 µM (inactive)
CC(C)=CC[C@]12CCN(C)[C@H]1N(S(=O)(=O)c1ccccc1)c1ccccc12 | > 54.2 µM (inactive) | > 56.5 µM (inactive) | > 50.7 µM (inactive) | > 44.6 µM (inactive) | > 45.4 µM (inactive) | > 43.2 µM (inactive) | > 44.7 µM (inactive) | > 19.9 µM (inactive) | 15.8 µM (inactive) | > 41 µM (inactive) | > 59.8 µM (inactive) | > 64 µM (inactive) | > 54 µM (inactive) | > 38.3 µM (inactive) | > 54.7 µM (inactive) | > 64.6 µM (inactive) | > 62.2 µM (inactive) | 17.3 µM (inactive) | > 39.5 µM (inactive) | > 22.5 µM (inactive)
CCC1(C)NC(c2cnccn2)=NN1c1ccc(Cl)cc1 (stereo not given) | > 100 µM (inactive) | > 100 µM (inactive) | 18.7 µM (inactive) | 66.8 µM (inactive) | > 100 µM (inactive) | 39.3 µM (inactive) | > 100 µM (inactive) | > 100 µM (inactive) | > 100 µM (inactive) | 39.8 µM (inactive) | > 100 µM (inactive) | > 100 µM (inactive) | 65.9 µM (inactive) | 41.7 µM (inactive) | > 100 µM (inactive) | > 100 µM (inactive) | 29 µM (inactive) | 19.3 µM (inactive) | 21.9 µM (inactive) | > 100 µM (inactive)
Cc1cn(C2CC(N=[N+]=[N-])C(CO)O2)c(=O)n(CCCCBr)c1=O (stereo not given) | > 100 µM (inactive) | > 100 µM (inactive) | < 0.01 µM (active) | > 100 µM (inactive) | > 100 µM (inactive) | > 100 µM (inactive) | 80.4 µM (inactive) | 96.8 µM (inactive) | > 100 µM (inactive) | 40.9 µM (inactive) | > 100 µM (inactive) | > 100 µM (inactive) | 26.3 µM (inactive) | > 100 µM (inactive) | > 100 µM (inactive) | > 100 µM (inactive) | 59.3 µM (inactive) | 63.2 µM (inactive) | > 100 µM (inactive) | > 100 µM (inactive)
O=c1c(Br)c(-c2ccccc2)[s+]([O-])c2ccccc12 (stereo not given) | 2.52 µM (inactive) | 17.9 µM (inactive) | 0.861 µM (active) | 5.9 µM (inactive) | 25.1 µM (inactive) | 2.74 µM (inactive) | 4.5 µM (inactive) | 16 µM (inactive) | 1.68 µM (inactive) | 10.4 µM (inactive) | 21.5 µM (inactive) | 4.6 µM (inactive) | 7.78 µM (inactive) | 12.2 µM (inactive) | 17.9 µM (inactive) | 13 µM (inactive) | 15.6 µM (inactive) | 16.2 µM (inactive) | 12.9 µM (inactive) | 12 µM (inactive)
CCCc1cc(=O)oc2c(C=O)c(O)cc(O)c12 | 26.5 µM (inactive) | 25.1 µM (inactive) | 22.8 µM (inactive) | 21.8 µM (inactive) | 22.6 µM (inactive) | 57.4 µM (inactive) | 21.8 µM (inactive) | 20.3 µM (inactive) | 15.1 µM (inactive) | 18.7 µM (inactive) | 26.7 µM (inactive) | 22 µM (inactive) | 25.1 µM (inactive) | 24 µM (inactive) | 29.9 µM (inactive) | 23.2 µM (inactive) | 24.9 µM (inactive) | 11.3 µM (inactive) | 24.6 µM (inactive) | 22.8 µM (inactive)
O=C1CSC(c2ccccc2)N1c1ccc(-n2c(-c3ccccc3)nc3ccccc3c2=O)cc1 (stereo not given) | 47.2 µM (inactive) | > 80.7 µM (inactive) | 36.3 µM (inactive) | 39.2 µM (inactive) | > 83.8 µM (inactive) | 33.1 µM (inactive) | 63.4 µM (inactive) | > 71.3 µM (inactive) | 49.7 µM (inactive) | 64.1 µM (inactive) | > 100 µM (inactive) | 61.7 µM (inactive) | 33.9 µM (inactive) | > 100 µM (inactive) | 63.2 µM (inactive) | > 80.4 µM (inactive) | 99.3 µM (inactive) | > 100 µM (inactive) | > 100 µM (inactive) | 28.4 µM (inactive)
Cc1nc2n(c1/C=C1/C(=O)Nc3ccccc31)CCS2 | 75.3 µM (inactive) | 41.3 µM (inactive) | 47.1 µM (inactive) | 33.6 µM (inactive) | 39.5 µM (inactive) | 33.3 µM (inactive) | 14.8 µM (inactive) | 47 µM (inactive) | 34.5 µM (inactive) | 70.1 µM (inactive) | > 100 µM (inactive) | 79.6 µM (inactive) | 26.5 µM (inactive) | 18.7 µM (inactive) | 39.6 µM (inactive) | 78 µM (inactive) | 56.1 µM (inactive) | 17.3 µM (inactive) | 33.3 µM (inactive) | 27.5 µM (inactive)
COC(=O)c1cc(=O)n(-c2ccc3nn(C)nc3c2)cc1C(=O)OC | > 100 µM (inactive) | > 100 µM (inactive) | > 100 µM (inactive) | > 100 µM (inactive) | > 100 µM (inactive) | > 100 µM (inactive) | > 100 µM (inactive) | > 100 µM (inactive) | > 100 µM (inactive) | > 100 µM (inactive) | > 100 µM (inactive) | > 100 µM (inactive) | > 100 µM (inactive) | > 100 µM (inactive) | > 100 µM (inactive) | > 100 µM (inactive) | > 100 µM (inactive) | > 100 µM (inactive) | > 100 µM (inactive) | > 100 µM (inactive)
O=c1c2ccccc2n2nnc3ccc(NCCNCCO)c1c32 | 0.824 µM (active) | 2.02 µM (inactive) | 0.948 µM (active) | 1.29 µM (inactive) | 2.03 µM (inactive) | 1.61 µM (inactive) | 1.34 µM (inactive) | 2.31 µM (inactive) | 1.82 µM (inactive) | 1.7 µM (inactive) | 2.34 µM (inactive) | 0.908 µM (active) | 1.29 µM (inactive) | 1.87 µM (inactive) | 2.06 µM (inactive) | 2.87 µM (inactive) | 1.43 µM (inactive) | 1.42 µM (inactive) | 3.32 µM (inactive) | 0.863 µM (active)
